# Measured values reported in a melting point compilation (Tetko et al.; mined from patent text by program, amines drawn as free bases though some values may be those of a salt).
row,SMILES,melting point
1,CCOC(=O)c1cn(-c2nc[nH]n2)cn1,220 to 222 °C
2,CC(=O)Nc1cc([N+](=O)[O-])ccc1CBr,188 to 189 °C
3,CC(C)CNCc1cc2cc(NC(=O)c3ccc(OC[C@@H]4CCCO4)cc3)ccc2n1C,132 to 133 °C
4,c1coc(Cn2c(NC3CCNCC3)nc3cccnc32)c1,159 °C
5,OCCCN1CCN(C(c2ccccc2)c2ccccc2)CC1,126 to 128 °C
6,CC(C)(C)C(NC(=O)CCc1cccnc1)Nc1c(Nc2cccnc2Cl)c(=O)c1=O (stereo not given),179 to 180 °C
7,COc1cc2ncnc(N3CCN(C(=O)Nc4ccc(CC(C)C)cc4)CC3)c2cc1OC,215 to 217 °C
8,CC(=O)CCCCc1ccc(-c2ccccc2F)cc1,37 to 38 °C
9,CC1=C(/C=C/C(=O)N2CCN(C(N)=O)CC2)C(C)(C)CCC1,144 °C
10,O=C1NS(=O)(=O)c2cccc(Cl)c21,210 to 212 °C
11,COc1ccc2ccccc2c1CCCC(=O)O,88 °C
12,Cc1ccc(NC(N)=S)nc1,178 to 181 °C
13,CN(C)CC1(C2(O)CCCCC2)Cc2cc3c(cc21)NCC3 (stereo not given),159 to 161 °C
14,COCOCc1nc2nccnc2c(=O)[nH]1,161 to 163 °C
15,O=C(N[C@@H]1CCN(CCNc2ncccn2)C[C@H]1O)c1cccc(C(F)(F)F)c1 (relative stereo),148 °C
16,COc1cc2ncc(C#N)c(Nc3ccccc3C(N)=O)c2cc1OC,238 to 240 °C
17,Cc1cc(C(=O)CCc2cc(-c3ccc(C(F)(F)F)cc3)nn2CC2CC2)ccc1OCC(=O)O,168 to 175 °C
18,O=Cc1cc(S(=O)(=O)O)c2cccnc2c1O,286 to 288 °C
19,C=CCc1c(C)nc2c(OCc3ccccc3)cccn12,90.5 to 91.5 °C
20,O=C(O)c1cc(C(F)(F)F)cc(S(=O)(=O)Cc2ccccc2)c1,184 to 186 °C
21,COc1ccc(CCc2cc3c(s2)NC(=S)CN=C3c2ccccc2Cl)cc1,185 to 186 °C
22,CCC(C(O)C(C)C(O)C(C)CCc1ccc(C)c(O)c1C(=O)O)C1OC(CC)(C2CCC(O)(CC)C(C)O2)CC1C (stereo not given),151 to 153 °C
23,CCCC(=O)N(C)Cc1c(-c2ccc(C)cc2)nc2n1-c1ccccc1CC2,110 to 112 °C
24,CCOC(=O)/C(=C\Nc1cc(OC)cc(OC)c1)c1ccccc1,75 to 76 °C
25,CCOc1ccc(CCNC(=O)C(F)(F)F)cc1S(=O)(=O)N=CN(C)C,145 °C

row,SMILES,melting point
1,CCCOC(=O)c1c(CBr)nc2cc(OC)c(OC)cc2c1-c1ccc(OC)c(OC)c1,144 to 145 °C
2,Cc1cc(C)cc(-c2cc3cnc(N)nc3nc2NC(=O)NC(C)(C)C)c1,180 to 182 °C
3,CC(=O)OCC(=O)C1(O)C(C)CC2C3CC(C)C4=CC(=O)CCC4(C)C3=CCC21C (stereo not given),197 to 199 °C
4,CCOC(=O)c1cn(C2CC2)c2c(F)c(N3CCNC(C)C3)c(F)c(N)c2c1=O (stereo not given),132 to 134 °C
5,CSc1nc2cc(C(F)(F)F)ccc2n1NC(C)=O,175 to 178 °C
6,COc1cc2c(cc1OC)CC(C(=O)N1CCN(C(=O)c3cc(OC)c(OC)c(OC)c3)CC1)=C2,183 to 185 °C
7,CC(=O)OCC(=O)C1(OC(=O)c2ccccc2)CCC2C3CC(C)C4=CC(=O)CCC4(C)C3C(O)CC21C (stereo not given),210 °C
8,Cn1nnnc1SCCCSc1ncccc1O,87.5 to 88.5 °C
9,CCCCCCCc1ccc(-c2ccc(-c3cc(F)cc(F)c3)cc2)nc1,185 to 186 °C
10,COc1ccc(-c2c(NC(=O)c3cc(C(C)(C)C)c(O)c(C(C)(C)C)c3)cnc3ccc(Cl)cc23)cc1OC,293 to 294 °C
11,O=C(C=Cc1cccnc1)NCCCCC1CCN(C(=O)c2cccc3c2-c2ccccc2C3=O)CC1,80 to 82 °C
12,C#CCNC(=C[N+](=O)[O-])NCCSCc1ncccc1Cl,171 to 172 °C
13,CCOC(=O)C(C)(C)c1ccc2c(c1)N(CC(C)N(C)C)c1ccccc1S2 (stereo not given),107 to 110 °C
14,C[C@@H]1Cc2cc3c(cc2C(c2ccc([N+](=O)[O-])cc2)=NN1C(=S)NN)OCO3,140 to 142 °C
15,CC1(C)Oc2ccc(C#N)cc2C(n2ccc(-c3ccc([N+](=O)[O-])cc3)cc2=O)C1O (stereo not given),278 to 284 °C
16,Cc1cc(SCc2ccc(-c3ccc(C(F)(F)F)cn3)cc2)c2c(c1OCC(=O)O)CCCO2,156 to 157 °C
17,CN(C)C(=O)C(O)C1c2ccccc2CCc2ccccc21 (stereo not given),210 to 214 °C
18,COC1=NS(=O)(=O)N(Cc2ccccc2)C(=O)N1,141 to 144 °C
19,N#Cc1cc(Cl)ccc1Oc1cc(Br)c(F)cc1O,208 to 210 °C
20,COC(=O)CCCC#Cc1cc(Cl)ccc1NS(=O)(=O)c1cc(C)cc(C)c1,92 to 94 °C
21,COC(=O)CCCCCC(c1ccccc1)c1c(C)c(O)c(C)c(C)c1OC(C)=O (stereo not given),146 to 148 °C
22,O=c1c2cc(F)ccc2ncn1CCN1CC=C(c2c[nH]c3ccccc23)CC1,138 °C
23,O=C1NC(=O)c2c1c(-c1c(O)cccc1Cl)cc1[nH]c3ccc(O)cc3c21,228 to 235 °C
24,Cc1ccc(SN=C2C(=O)N3C(C(=O)OC(c4ccccc4)c4ccccc4)=C(CSc4nnnn4C)CSC23)cc1 (stereo not given),154 to 155 °C
25,CCC(=CC(CSc1nccn1C)=NO)C(C)[N+](=O)[O-] (stereo not given),91 to 93 °C

row,SMILES,melting point
1,COc1cc2ncc(C#N)c(Nc3cccc(N)c3)c2cc1OC,222 to 228 °C
2,COc1ccc(C2CNC(=O)O2)cc1O (stereo not given),157 to 160 °C
3,CCOC1CCN(C(=O)c2ccc(Cl)c(C3(C)C(=O)N(Cc4ccc(OC)cc4OC)c4ccc(Cl)cc43)c2)CC1 (stereo not given),108 °C
4,O=C(O)CN1C(=O)C(=Cc2csc(Nc3ccccc3)n2)SC1=S,242 to 246 °C
5,C[C@H](N)C(=O)NC1N=C(C2CCCCC2)c2ccccc2N(C)C1=O (stereo not given in full),205 to 206 °C
6,O=C(O)CCCCCCCn1c(Cc2ccccc2)nc(-c2ccccc2)c1-c1ccccc1,148 to 149 °C
7,Cn1c(=O)ccc2cc(-c3cccnc3)ccc21,116 to 118 °C
8,N#CCc1coc2ccc3c(c12)C=CCO3,99 to 101 °C
9,COC(=O)[C@H](CCSC)NC(=O)c1ccc(/C=C(/Cn2ccnc2)c2nccs2)cc1-c1ccccc1,122 to 124 °C
10,BrC1COCOCC1Br (stereo not given),37 °C
11,NC(=O)c1ccnc(-c2ccc(Oc3ccc(F)cc3)cc2)n1,195 to 197 °C
12,NC(=O)N(O)CCOCc1ccsc1,99 to 100 °C
13,O=C1Nc2ccccc2N(C(=O)N2CCCC(CCCN3CCOCC3)C2)c2ncccc21 (stereo not given),161 to 163 °C
14,Cn1c(Cl)cnc1C(c1cc(F)ccc1F)S(=O)(=O)c1ccc(Cl)cc1 (stereo not given),179 to 180 °C
15,COc1ccc2cccc(Br)c2c1,54 to 58 °C
16,O=C(c1ccc(Cl)cc1)c1cc(Cl)cc2c1OCC2C(=O)O (stereo not given),161 to 163 °C
17,CCOC(=O)CCc1cnn2c(N(C)c3ccccc3)ncnc12,74 °C
18,CCOC(=O)/C=C(\C)c1cccc([N+](=O)[O-])c1,43 to 44 °C
19,COc1cc(C(=O)O)c(C(=O)O)c(Cl)c1Cl,218 to 220 °C
20,COc1ccc(-n2nc(CCN)cc2-c2ccc(Cl)cc2)cc1,95 to 97 °C
21,CCOC(=O)C1=C(N(C)C)N=C(C)C(C(=O)OC)C1c1cccc([N+](=O)[O-])c1 (stereo not given),95 °C
22,CN(C)CCCSC1=C(C#N)C(c2ccccn2)(c2ccccn2)C(=O)N1,184 to 185 °C
23,c1ccc2c(N3CCN(CCc4ccc(-c5csnn5)cc4)CC3)nsc2c1,257 to 259 °C
24,CC(C)c1ccc(CN(C(=N)N)c2ccc3c4c(cccc24)CC3)cc1,153 to 155 °C
25,O=C(Nc1c(C(O)(C(F)(F)F)C(F)(F)F)ccc2ccccc12)C1CCC1,185 to 186 °C

row,SMILES,melting point
1,O=C(Nc1ccncc1)c1cc2ccnc(Cl)c2[nH]1,> 320 °C
2,Cc1c(-c2ccc(OCC(=O)O)cc2)oc(=O)c(Sc2ccccc2)c1O,194 to 197 °C
3,COc1cc2c3cc(OC)c(OC)cc3n(C(=O)c3ccccc3)c2cc1OC,181 to 182 °C
4,CC(C)(C)OC(=O)c1sc(Oc2ccc3c(c2)OCO3)c2c1CCc1cnoc1-2,165 to 166 °C
5,CC(=O)C=Cc1c(Cl)nc(C)c2c1CCCC2,90 °C
6,O=C1c2c(ccc3c2OCCO3)S(=O)(=O)N1CCCCO,119 to 122 °C
7,O=[N+]([O-])c1c(Cl)cc(Cl)cc1CO,133 to 134 °C
8,c1coc(-c2ccc(-c3cn([C@H]4CN5CCC4CC5)nn3)s2)c1,180 °C
9,O=C(O)Cc1cccc(C(=O)c2cc3ccsc3s2)c1,121 °C
10,NC(=O)N1C(=O)C(=C(OC(=O)c2ccncc2)c2cccs2)c2cc(F)c(Cl)cc21,220 to 221 °C
11,COc1ccc(Nc2ccc(O)cc2)c(CO)c1,96.5 to 97 °C
12,CC(C)(C)OC(=O)NCc1cc([N+](=O)[O-])ccc1Cl,77 °C
13,CC(=O)COc1cc(-n2c(=O)cc(C(F)(F)F)n(C)c2=O)c(F)cc1Cl,164 to 166 °C
14,Cc1ccc(S(=O)(=O)N2CCCC2c2ccccc2)cc1 (racemic),109 °C
15,CC(=O)c1cc(Cl)c(N)c2c1OCCO2,133 to 136 °C
16,Cc1nc2ncnn2c(C2CCCCC2)c1-c1c(F)cc(OCCCN(C)C)cc1F,95 to 97 °C
17,c1cc(Nc2nccc(-c3ccco3)n2)cc(-n2ccnc2)c1,175 to 178 °C
18,CN(C)c1ccc(C=O)c(O)c1,77 to 78 °C
19,CCCN(CCC)c1nc2cc3c(cc2s1)CC(N)C3 (stereo not given),127 to 128 °C
20,COc1ccc(/C=C(\C#N)c2ccccc2C(F)(F)F)cc1OC1CCCC1,96 to 98 °C
21,Cc1ccc(COc2cccc(C(=O)Nc3ccc(CN4CCCCC4)cc3)c2)cc1,153 to 155 °C
22,Cc1ccc(-c2ccc3c(c2)C=C(C(=O)Nc2ccc(CS(=O)(=O)C4CCCCC4)cc2)CCO3)cc1,250 to 251 °C
23,c1ccc(-c2nc(COc3cccc(CCCn4ccnc4)c3)co2)cc1,62 to 63 °C
24,Cc1ccc(C2=C(c3ccc(S(C)(=O)=O)cc3)C(=O)N(C)C2)cc1,183 to 185 °C
25,CC(C)[C@H](NC(=O)N(C)Cc1cscn1)C(=O)N[C@@H](Cc1ccccc1)C[C@H](O)[C@H](Cc1ccccc1)NC(=O)[C@@H](NC(=O)N(C)Cc1cscn1)C(C)C,154 to 156 °C
